The values below come from ChEMBL document CHEMBL5728996 (2022).

One experiment addresses T1, Adenosine receptor A2b (Homo sapiens, UniProt P29275).
T1 sequence (P29275 whole entry): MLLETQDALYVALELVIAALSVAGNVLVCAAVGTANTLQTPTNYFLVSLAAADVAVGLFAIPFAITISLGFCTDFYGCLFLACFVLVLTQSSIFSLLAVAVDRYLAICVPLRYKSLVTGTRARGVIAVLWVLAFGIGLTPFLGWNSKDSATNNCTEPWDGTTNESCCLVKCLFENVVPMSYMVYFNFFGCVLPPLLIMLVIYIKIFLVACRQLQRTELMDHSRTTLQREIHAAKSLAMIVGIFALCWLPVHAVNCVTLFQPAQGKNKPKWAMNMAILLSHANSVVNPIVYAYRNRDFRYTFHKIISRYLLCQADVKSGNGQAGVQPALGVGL
Nature of the experiment: (§1) Activity Assay: Compounds (Adenosine Receptor modulators) and activity assay.

Another experiment deals with Adenosine receptor A2a (Homo sapiens, UniProt P29274). The experiment is described as §1. Format: single protein.
Another experiment addresses T2, Adenosine receptor A1 (Homo sapiens, UniProt P30542).
T2 sequence (P30542 whole entry): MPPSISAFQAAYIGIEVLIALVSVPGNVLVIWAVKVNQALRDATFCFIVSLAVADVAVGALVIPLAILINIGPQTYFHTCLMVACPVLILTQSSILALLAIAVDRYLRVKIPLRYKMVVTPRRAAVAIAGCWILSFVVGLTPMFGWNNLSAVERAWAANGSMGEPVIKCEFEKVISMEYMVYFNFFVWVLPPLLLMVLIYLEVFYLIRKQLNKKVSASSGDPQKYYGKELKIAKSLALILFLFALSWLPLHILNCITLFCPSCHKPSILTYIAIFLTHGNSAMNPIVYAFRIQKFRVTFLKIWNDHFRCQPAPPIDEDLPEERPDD
The experiment is described as §1.

The next experiment concerns the target T3, Adenosine receptor A3 (Homo sapiens, UniProt P0DMS8).
T3 sequence (P0DMS8 whole entry): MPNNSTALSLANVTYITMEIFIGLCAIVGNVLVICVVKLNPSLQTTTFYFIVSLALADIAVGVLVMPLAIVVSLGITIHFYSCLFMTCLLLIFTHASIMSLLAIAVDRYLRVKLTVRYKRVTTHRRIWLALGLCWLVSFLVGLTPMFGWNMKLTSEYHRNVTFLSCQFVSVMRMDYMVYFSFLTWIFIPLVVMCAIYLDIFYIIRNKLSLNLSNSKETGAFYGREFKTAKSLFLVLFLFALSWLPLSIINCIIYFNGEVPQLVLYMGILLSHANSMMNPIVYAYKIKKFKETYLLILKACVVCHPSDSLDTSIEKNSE
Described as §1.

Chain of Adenosine receptor A2a (P29274 whole entry): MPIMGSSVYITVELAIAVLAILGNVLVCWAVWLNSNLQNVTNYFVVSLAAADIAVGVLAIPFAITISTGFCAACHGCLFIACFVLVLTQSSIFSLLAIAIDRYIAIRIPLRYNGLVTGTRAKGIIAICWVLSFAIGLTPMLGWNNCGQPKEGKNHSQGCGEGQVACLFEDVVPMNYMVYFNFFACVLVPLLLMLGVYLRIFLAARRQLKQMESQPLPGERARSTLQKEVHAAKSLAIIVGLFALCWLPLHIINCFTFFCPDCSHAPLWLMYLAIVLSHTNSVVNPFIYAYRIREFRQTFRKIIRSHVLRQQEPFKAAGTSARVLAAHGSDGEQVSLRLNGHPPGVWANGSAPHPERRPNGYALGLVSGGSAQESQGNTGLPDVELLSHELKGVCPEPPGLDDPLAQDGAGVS

For orientation: IC50 means the point on the concentration scale where inhibition reaches its midpoint. The low end stands for inhibition by little substance, the high end for a need for much substance. `O=C(c1nc(NCc2ccc(F)cn2)nc2ccsc12)N1CC[C@H](O)C1`: the IC50 against Adenosine receptor A2b and against Adenosine receptor A2a was above 500 nM in each case.
Regarding `CC(=O)Nc1ccc(CCNC(=O)c2nc(N[C@@H](C)c3cccnc3)nc3cc(C)sc23)cc1`, the IC50 against Adenosine receptor A1 and on Adenosine receptor A2a was above 500 nM throughout.
Take `COc1ccc(CNC(=O)c2nc(NCc3cncc(F)c3)nc3ccsc23)cn1`: the IC50 on Adenosine receptor A3 and against Adenosine receptor A1 was above 500 nM in each case.
Consider `C[C@H](Nc1nc(C(=O)N[C@H]2CC[C@@H](O)C2)c2sccc2n1)c1ccccn1`, for which the IC50 is above 500 nM against Adenosine receptor A3, above 500 nM against Adenosine receptor A1 and below 10 nM at Adenosine receptor A2b.
`CCC(Nc1nc(C(=O)NCc2ccc(OC)nc2)c2sccc2n1)c1cccnc1` (configuration not stated) came in with an IC50 on Adenosine receptor A2b above 500 nM.
For the compound `C[C@H](Nc1nc(C(=O)N2CC(N)C2)c2sccc2n1)c1cncc(F)c1`, the concentration for half-maximal inhibition (IC50) against Adenosine receptor A3, on Adenosine receptor A1 and on Adenosine receptor A2a was above 500 nM throughout.
`C[C@H](Nc1nc(C(=O)NCCc2ccccc2O)c2sccc2n1)c1cncc(F)c1`: on Adenosine receptor A2b, the IC50 was below 10 nM.
In the case of `C[C@H](Nc1nc(C(=O)NCCO)c2sccc2n1)c1cccnc1`, the half-inhibitory concentration (IC50) against Adenosine receptor A3 and against Adenosine receptor A1 was above 500 nM throughout.
For `CC(=O)Nc1ccc(CCNC(=O)c2nc(N[C@@H](C)c3cncc(F)c3)nc3ccsc23)cc1`, the IC50 on Adenosine receptor A3, on Adenosine receptor A1 and at Adenosine receptor A2a was above 500 nM throughout.
Turning to `COCCN1CCC(CNC(=O)c2nc(N[C@@H](C)c3ccccn3)nc3ccsc23)CC1`, the IC50 at Adenosine receptor A2b and against Adenosine receptor A2a was above 500 nM throughout.
In the case of `C[C@H](Nc1nc(C(=O)N2CC[C@@H](S(C)(=O)=O)C2)c2sccc2n1)c1ccccn1`, the IC50 at Adenosine receptor A2a was above 500 nM.
On to `C[C@H](Nc1nc(C(=O)N2CC[C@@H](NC(=O)OC(C)(C)C)C2)c2sccc2n1)c1ccccn1`, for which the IC50 against Adenosine receptor A3 and against Adenosine receptor A1 was above 500 nM each time.
As to `C[C@H](Nc1nc(C(=O)N2CC(CN)C2)c2sccc2n1)c1cncc(F)c1`, the IC50 against Adenosine receptor A3, on Adenosine receptor A1 and against Adenosine receptor A2a was above 500 nM throughout.
For `CC(C)(C)OC(=O)N1CCC[C@@H]1CNC(=O)c1nc(NCc2cncc(F)c2)nc2ccsc12`, the IC50 against Adenosine receptor A2b and on Adenosine receptor A2a was above 500 nM each time.
With `O=C(c1nc(NCc2cncc(F)c2)nc2ccsc12)N1CCCC1`, the IC50 at Adenosine receptor A3 is above 500 nM; on Adenosine receptor A1, above 500 nM; on Adenosine receptor A2b, below 10 nM.
